Series [1] can be described thus: Cytotoxicity against C57BL/6 mouse spleen lymphocytes assessed as inhibition of cell proliferation at 1 mg/ml after 48 hrs by MTT assay. The class given is tissue-based, Lymphocyte.
The next series deals with HCT-116. The experiment in a line: Cytotoxicity against human HCT116 cells assessed as inhibition of cell proliferation at 1 mg/ml after 48 hrs by MTT assay. The class given is functional. The settings on record: HCT-116, 48 h. In general terms: Tetrazolium dyes change colour on reduction, which living cells bring about.
Series [2] is described as follows: Antioxidant activity assessed as hydroxyl free radical scavenging activity at 1 mg assessed per mg. The class given is functional.
For series [3], the system named is Radical scavenging activity. The experiment in a line: Antioxidant activity assessed as DPPH free radical scavenging activity at 1 mg assessed per mg. The series is classed as functional.

A word on the inhibition: it is the relative decrease from the control value, in per cent. As to `N#CC1=C(N)N2C(=O)CSC2=C(C#N)C1c1ccc(Cl)cc1Cl` (centres undefined), in series [1], the inhibition at 48 h, 1 mg/ml worked out at 55.4%. In addition, the inhibition at 1000 µg/mL in the series with HCT-116 was determined as 29.9%.

With `O=C1O[C@H]([C@@H](O)CO)C(O)=C1O`, in series [2], the inhibition is 109%.

`N#CC1=C(N)n2c(s/c(=C\c3ccc([N+](=O)[O-])cc3)c2=O)=C(C#N)C1c1ccc([N+](=O)[O-])cc1` (centres undefined): in series [1], the inhibition at 48 h, 1 mg/ml is 51.7%. Further, the inhibition at 1000 µg/mL in the series with HCT-116 was 35.5%.

Take `N#CC1=C(N)n2c(s/c(=C\c3cccc([N+](=O)[O-])c3)c2=O)=C(C#N)C1c1cccc([N+](=O)[O-])c1` (centres undefined): the inhibition at 48 h, 1 mg/ml in series [1] worked out at 60.4%. The inhibition was found to be 45.9% in series [3] and 56.8% in series [2]. Besides, in the series on HCT-116, the inhibition at 1000 µg/mL came to 53%.

In the case of `COc1ccc(C2C(C#N)=C(N)N3C(=O)CSC3=C2C#N)cc1` (centres undefined), the inhibition at 48 h, 1 mg/ml in series [1] came out at 70.6%. Also, in series [3], the inhibition was determined as 140%. Also, in the series with HCT-116, the inhibition at 1000 µg/mL came out at 50.2%.

In the case of `N#CC1=C(N)N2C(=O)CSC2=C(C#N)C1c1ccc(Br)cc1` (centres undefined), in series [1], the inhibition at 48 h, 1 mg/ml turned out to be 69.6%. Also, the inhibition in series [3] amounted to 67.7%. Also, the inhibition at 1000 µg/mL in the series with HCT-116 is 43.5%.

Take `N#CC1=C(N)n2c(s/c(=C\c3ccc(Br)cc3)c2=O)=C(C#N)C1c1ccc(Br)cc1` (centres undefined): the inhibition at 48 h, 1 mg/ml in series [1] stood at 71.3%. Besides, the inhibition in series [3] was determined as 108%; in series [2], 125%. Moreover, the inhibition at 1000 µg/mL in the series on HCT-116 was 56.6%.

For `N#CC1=C(N)n2c(s/c(=C\c3cccs3)c2=O)=C(C#N)C1c1cccs1` (centres undefined), the inhibition at 48 h, 1 mg/ml in series [1] is 55.4%. Also, the inhibition at 1000 µg/mL in the series on HCT-116 was 63.8%.

Consider `N#CC1=C(N)n2c(s/c(=C\c3ccc(O)c([N+](=O)[O-])c3)c2=O)=C(C#N)C1c1ccc(O)c([N+](=O)[O-])c1` (centres undefined), for which, in series [1], the inhibition at 48 h, 1 mg/ml was 5.31%. Further, the inhibition in series [3] amounted to 109%. In addition, the inhibition at 1000 µg/mL in the series on HCT-116 came to 41.2%.

As for `N#CC1=C(N)N2C(=O)CSC2=C(C#N)C1c1ccc2c(c1)OCO2` (centres undefined), in series [1], the inhibition at 48 h, 1 mg/ml turned out to be 62%. In addition, the inhibition at 1000 µg/mL with HCT-116 was 51.8%.

For `N#CC1=C(N)N2C(=O)CSC2=C(C#N)C1c1ccccc1Cl` (centres undefined), in series [1], the inhibition at 48 h, 1 mg/ml stood at 60.4%. In the series on HCT-116, the inhibition at 1000 µg/mL is 54.1%.

Take `N#CC1=C(N)N2C(=O)CSC2=C(C#N)C1c1ccc(F)cc1` (centres undefined): the inhibition at 48 h, 1 mg/ml in series [1] came to 66.9%. In the series on HCT-116, the inhibition at 1000 µg/mL stood at 47.8%.

With `Cc1ccc(C2C(C#N)=C(N)N3C(=O)CSC3=C2C#N)cc1` (centres undefined), the inhibition at 48 h, 1 mg/ml in series [1] was determined as 63.8%. The inhibition at 1000 µg/mL in the series on HCT-116 was 47.4%.

Regarding `N#CC1=C(N)N2C(=O)CSC2=C(C#N)C1c1ccccc1` (centres undefined), in series [1], the inhibition at 48 h, 1 mg/ml came to 64.8%. Besides, in the series with HCT-116, the inhibition at 1000 µg/mL was found to be 50.8%.

The record behind these values is ChEMBL document CHEMBL1155215, “Green chemoselective synthesis of thiazolo[3,2-a]pyridine derivatives and evaluation of their antioxidant and cytotoxic activities” (Bioorg Med Chem Lett, 2009).
